From the supplement of paper PMC12463676, “Small-molecule dissolution of stress granules by redox modulation benefits ALS models” (Nature Chemical Biology, 2025)

Each target was assayed with O=[As]([O-])(O)O.[K+] [potassium arsenate] (assay: thermal stability z-score vs DMSO; higher = more thermally stabilized by treatment). Conditions: HeLa; arsenate concentration 1 mM.
Description: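 Cellular thermal proteome profiling in HeLa cells treated with 1 mM arsenate for 1 h (DMSO pretreatment), heated to ten temperatures (37-66.3 °C). Soluble protein was quantified by TMT mass spectrometry relative to DMSO controls; the thermal stability score was transformed to a z-score; mean of n = 3 experiments.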
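Also: each temperature applied for 3 min, abundance score taken as mean log2 fold change at the two lowest temperatures, z-score obtained by mean subtraction and division by SD.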

UniProt Q8N4C8, sequence (Q8N4C8 whole entry, looked up): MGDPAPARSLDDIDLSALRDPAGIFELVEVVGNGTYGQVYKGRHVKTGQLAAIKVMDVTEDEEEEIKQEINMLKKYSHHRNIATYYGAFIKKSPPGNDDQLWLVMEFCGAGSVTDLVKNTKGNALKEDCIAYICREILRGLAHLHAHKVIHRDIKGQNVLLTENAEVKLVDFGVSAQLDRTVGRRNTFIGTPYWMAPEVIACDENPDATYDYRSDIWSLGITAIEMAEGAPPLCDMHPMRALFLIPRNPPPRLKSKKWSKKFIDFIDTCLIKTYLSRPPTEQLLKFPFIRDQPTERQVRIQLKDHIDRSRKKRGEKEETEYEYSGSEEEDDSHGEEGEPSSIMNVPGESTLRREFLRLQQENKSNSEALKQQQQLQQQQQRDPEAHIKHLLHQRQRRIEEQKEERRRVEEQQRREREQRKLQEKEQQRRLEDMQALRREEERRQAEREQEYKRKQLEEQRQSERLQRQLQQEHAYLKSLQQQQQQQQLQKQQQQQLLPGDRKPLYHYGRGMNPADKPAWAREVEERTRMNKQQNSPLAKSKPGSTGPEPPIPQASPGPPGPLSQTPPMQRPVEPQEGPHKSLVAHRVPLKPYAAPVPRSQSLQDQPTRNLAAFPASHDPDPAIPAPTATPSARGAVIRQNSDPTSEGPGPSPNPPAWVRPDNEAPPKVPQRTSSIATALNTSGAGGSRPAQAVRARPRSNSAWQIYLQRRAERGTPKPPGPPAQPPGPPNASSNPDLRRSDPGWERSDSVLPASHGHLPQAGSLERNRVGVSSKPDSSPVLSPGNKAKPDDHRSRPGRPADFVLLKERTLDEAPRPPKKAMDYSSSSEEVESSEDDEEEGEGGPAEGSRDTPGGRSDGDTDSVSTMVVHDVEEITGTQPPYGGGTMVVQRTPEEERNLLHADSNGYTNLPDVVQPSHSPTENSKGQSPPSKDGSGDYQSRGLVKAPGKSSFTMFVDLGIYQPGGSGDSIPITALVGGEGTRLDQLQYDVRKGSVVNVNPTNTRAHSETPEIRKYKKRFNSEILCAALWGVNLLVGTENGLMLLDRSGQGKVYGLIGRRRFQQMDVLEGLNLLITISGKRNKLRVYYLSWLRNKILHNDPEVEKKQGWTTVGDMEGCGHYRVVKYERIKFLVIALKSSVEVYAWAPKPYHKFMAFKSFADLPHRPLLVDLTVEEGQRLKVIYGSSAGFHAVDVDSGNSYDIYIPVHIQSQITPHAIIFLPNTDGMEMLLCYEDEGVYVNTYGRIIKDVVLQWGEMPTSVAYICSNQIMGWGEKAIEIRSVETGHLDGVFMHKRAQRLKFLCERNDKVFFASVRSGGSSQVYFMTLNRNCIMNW
UniProt P56192, sequence (P56192 whole entry): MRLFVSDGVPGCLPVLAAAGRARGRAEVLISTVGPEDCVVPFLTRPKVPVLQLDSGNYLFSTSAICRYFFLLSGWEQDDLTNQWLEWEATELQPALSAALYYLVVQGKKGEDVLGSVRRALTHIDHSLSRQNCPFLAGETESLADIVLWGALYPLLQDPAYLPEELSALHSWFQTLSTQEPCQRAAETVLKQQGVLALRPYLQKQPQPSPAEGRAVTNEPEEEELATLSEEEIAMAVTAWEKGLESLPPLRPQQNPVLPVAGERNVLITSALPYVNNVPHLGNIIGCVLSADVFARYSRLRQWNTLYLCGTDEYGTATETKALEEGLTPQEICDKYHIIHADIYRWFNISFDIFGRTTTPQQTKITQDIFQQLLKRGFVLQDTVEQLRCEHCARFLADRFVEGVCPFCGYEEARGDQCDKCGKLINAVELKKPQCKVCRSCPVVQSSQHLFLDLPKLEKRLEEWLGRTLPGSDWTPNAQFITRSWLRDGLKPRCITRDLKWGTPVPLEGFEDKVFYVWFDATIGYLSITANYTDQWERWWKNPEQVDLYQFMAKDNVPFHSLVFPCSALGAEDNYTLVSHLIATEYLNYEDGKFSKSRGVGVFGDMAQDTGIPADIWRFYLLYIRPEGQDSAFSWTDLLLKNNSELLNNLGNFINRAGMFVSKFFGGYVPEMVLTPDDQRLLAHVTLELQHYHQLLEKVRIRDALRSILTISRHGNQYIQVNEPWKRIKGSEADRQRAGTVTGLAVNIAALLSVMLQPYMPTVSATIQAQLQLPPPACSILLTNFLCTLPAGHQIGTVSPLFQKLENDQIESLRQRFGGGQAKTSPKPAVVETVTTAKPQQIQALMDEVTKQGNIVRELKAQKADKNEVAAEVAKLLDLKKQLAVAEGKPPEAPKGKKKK
UniProt Q8WUD4, sequence (Q8WUD4 whole entry): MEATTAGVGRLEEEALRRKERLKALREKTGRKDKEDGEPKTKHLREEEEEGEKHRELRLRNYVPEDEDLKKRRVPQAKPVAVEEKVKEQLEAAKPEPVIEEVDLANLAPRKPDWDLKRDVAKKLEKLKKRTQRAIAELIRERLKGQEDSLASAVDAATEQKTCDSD
UniProt Q5U4P2, sequence (Q5U4P2 whole entry): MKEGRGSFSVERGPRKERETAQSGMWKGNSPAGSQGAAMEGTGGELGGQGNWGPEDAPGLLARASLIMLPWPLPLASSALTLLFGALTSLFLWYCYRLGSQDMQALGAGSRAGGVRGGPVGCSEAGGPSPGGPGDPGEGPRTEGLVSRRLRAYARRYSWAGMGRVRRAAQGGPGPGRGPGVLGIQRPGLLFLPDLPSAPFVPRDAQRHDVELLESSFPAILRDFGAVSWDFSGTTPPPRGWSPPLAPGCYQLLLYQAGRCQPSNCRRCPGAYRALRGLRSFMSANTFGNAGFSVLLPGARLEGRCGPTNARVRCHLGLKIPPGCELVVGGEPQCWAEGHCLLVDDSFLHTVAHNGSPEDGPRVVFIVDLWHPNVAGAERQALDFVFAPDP
UniProt Q92805, sequence (Q92805 whole entry): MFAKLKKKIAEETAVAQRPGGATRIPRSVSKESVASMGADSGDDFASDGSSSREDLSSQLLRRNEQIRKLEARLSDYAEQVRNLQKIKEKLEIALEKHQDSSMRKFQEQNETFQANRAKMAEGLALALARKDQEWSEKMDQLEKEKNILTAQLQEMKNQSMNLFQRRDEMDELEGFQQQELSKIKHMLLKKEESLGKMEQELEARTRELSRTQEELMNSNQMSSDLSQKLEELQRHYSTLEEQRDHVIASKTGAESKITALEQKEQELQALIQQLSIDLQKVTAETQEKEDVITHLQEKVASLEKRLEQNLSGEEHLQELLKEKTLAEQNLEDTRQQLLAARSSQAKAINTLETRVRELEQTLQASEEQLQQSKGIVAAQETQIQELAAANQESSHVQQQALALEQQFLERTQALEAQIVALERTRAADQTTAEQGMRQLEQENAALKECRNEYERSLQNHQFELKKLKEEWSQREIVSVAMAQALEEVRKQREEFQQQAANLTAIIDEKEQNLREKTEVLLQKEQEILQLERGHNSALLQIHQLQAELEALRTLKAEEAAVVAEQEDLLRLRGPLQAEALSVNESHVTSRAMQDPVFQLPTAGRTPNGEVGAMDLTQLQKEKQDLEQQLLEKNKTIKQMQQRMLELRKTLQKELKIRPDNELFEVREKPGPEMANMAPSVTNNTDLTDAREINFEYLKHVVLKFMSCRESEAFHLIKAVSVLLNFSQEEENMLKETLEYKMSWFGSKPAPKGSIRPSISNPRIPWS
UniProt P11171, sequence (P11171 whole entry): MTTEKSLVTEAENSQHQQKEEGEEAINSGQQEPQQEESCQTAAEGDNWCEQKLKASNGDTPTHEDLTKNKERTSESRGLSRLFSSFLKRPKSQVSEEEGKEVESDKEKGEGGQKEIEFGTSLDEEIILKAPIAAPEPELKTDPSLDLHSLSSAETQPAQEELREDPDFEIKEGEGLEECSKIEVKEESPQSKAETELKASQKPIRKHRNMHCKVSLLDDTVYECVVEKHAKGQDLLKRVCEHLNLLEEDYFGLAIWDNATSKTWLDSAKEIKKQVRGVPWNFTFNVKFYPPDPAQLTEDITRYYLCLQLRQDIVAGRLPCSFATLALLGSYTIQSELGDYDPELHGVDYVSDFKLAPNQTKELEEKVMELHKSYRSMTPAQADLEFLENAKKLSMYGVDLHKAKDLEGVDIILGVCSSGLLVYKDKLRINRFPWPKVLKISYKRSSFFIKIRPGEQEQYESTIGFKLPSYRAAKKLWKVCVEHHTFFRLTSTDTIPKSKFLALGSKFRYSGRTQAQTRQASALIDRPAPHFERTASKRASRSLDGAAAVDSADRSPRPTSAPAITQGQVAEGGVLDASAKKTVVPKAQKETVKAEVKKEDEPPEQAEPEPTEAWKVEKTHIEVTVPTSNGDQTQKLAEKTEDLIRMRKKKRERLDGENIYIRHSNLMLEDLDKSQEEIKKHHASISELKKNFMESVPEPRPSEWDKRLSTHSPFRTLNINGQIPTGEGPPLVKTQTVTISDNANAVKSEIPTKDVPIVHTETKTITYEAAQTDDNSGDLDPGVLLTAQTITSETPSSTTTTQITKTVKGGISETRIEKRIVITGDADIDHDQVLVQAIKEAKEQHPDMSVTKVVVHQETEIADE
UniProt P30837, sequence (P30837 whole entry): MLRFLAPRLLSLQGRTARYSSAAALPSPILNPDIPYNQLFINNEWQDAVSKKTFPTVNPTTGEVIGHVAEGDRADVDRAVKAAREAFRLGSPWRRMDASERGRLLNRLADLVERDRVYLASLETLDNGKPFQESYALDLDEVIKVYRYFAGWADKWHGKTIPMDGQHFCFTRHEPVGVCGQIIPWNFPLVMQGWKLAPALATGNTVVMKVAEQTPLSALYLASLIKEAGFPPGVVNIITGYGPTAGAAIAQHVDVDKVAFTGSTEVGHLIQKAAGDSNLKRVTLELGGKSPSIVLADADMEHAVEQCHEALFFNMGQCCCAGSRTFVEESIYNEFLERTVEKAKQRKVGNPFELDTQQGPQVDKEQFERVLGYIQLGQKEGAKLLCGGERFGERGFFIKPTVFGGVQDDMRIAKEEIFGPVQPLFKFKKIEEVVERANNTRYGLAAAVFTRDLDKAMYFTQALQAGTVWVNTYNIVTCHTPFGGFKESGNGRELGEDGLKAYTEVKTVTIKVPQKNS
UniProt P30047, sequence (P30047 whole entry): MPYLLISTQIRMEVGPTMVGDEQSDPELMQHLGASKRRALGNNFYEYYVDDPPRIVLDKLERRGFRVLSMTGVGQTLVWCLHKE

How did the thermal stability z-score turn out when SPRYD7 (UniProt Q5W111) was run?
The thermal stability z-score was -0.339.

Which thermal stability z-score does the source give for BRD8 (UniProt Q9H0E9) here?
The thermal stability z-score was -1.06.

REL (UniProt Q04864) was tested. Which thermal stability z-score did it give?
The thermal stability z-score was 0.22.

Which thermal stability z-score does the source give for CXORF56 (UniProt Q9H5V9) here?
Its thermal stability z-score is -3.91.

How did the thermal stability z-score turn out when GSTZ1 (UniProt O43708) was run?
The thermal stability z-score was 0.239.

RPL10 (UniProt P27635) was tested. Which thermal stability z-score did it give?
The thermal stability z-score was -0.781.

With SH3PXD2A (UniProt Q5TCZ1) as the target, how does the thermal stability z-score read?
The thermal stability z-score was 0.207.

MTMR1 (UniProt Q13613) was tested. Which thermal stability z-score did it give?
Its thermal stability z-score is -1.27.

ASNSD1 (UniProt Q9NWL6) was tested. Which thermal stability z-score did it give?
The thermal stability z-score was -0.734.

Which thermal stability z-score does the source give for XPO6 (UniProt Q96QU8) here?
Its thermal stability z-score is -0.339.

With PAIP2 (UniProt Q9BPZ3) as the target, how does the thermal stability z-score read?
The thermal stability z-score was -1.06.

Which thermal stability z-score does the source give for CCDC12 (UniProt Q8WUD4) here?
Its thermal stability z-score is -0.605.

APIP (UniProt Q96GX9) was tested. Which thermal stability z-score did it give?
The thermal stability z-score was -0.0221.

BCAP29 (UniProt Q9UHQ4) was tested. Which thermal stability z-score did it give?
The thermal stability z-score was -0.458.

Which thermal stability z-score does the source give for MINK1 (UniProt Q8N4C8) here?
Its thermal stability z-score is -0.0337.

With ASPHD1 (UniProt Q5U4P2) as the target, how does the thermal stability z-score read?
The thermal stability z-score was -0.276.

Which thermal stability z-score does the source give for SURF6 (UniProt O75683) here?
Its thermal stability z-score is -2.85.

How did the thermal stability z-score turn out when WWP2 (UniProt O00308) was run?
The thermal stability z-score was 0.0179.

For INPP5A (UniProt Q14642), which thermal stability z-score is on record?
Its thermal stability z-score is 0.656.

Which thermal stability z-score does the source give for MARS (UniProt P56192) here?
The thermal stability z-score was 0.22.

With GOLGA1 (UniProt Q92805) as the target, how does the thermal stability z-score read?
Its thermal stability z-score is 0.92.

For ALDH1B1 (UniProt P30837), which thermal stability z-score is on record?
Its thermal stability z-score is -1.44.

For SFPQ (UniProt P23246), which thermal stability z-score is on record?
Its thermal stability z-score is 1.15.

Which thermal stability z-score does the source give for BTF3L4 (UniProt Q96K17) here?
Its thermal stability z-score is -0.154.

With PLCD3 (UniProt Q8N3E9) as the target, how does the thermal stability z-score read?
The thermal stability z-score was 0.0088.

Which thermal stability z-score does the source give for ZWILCH (UniProt Q9H900) here?
Its thermal stability z-score is -0.55.

How did the thermal stability z-score turn out when PPP1R7 (UniProt Q15435) was run?
The thermal stability z-score was -0.488.

How did the thermal stability z-score turn out when DIAPH3 (UniProt Q9NSV4) was run?
The thermal stability z-score was -0.0767.

For HPDL (UniProt Q96IR7), which thermal stability z-score is on record?
Its thermal stability z-score is 1.13.

Which thermal stability z-score does the source give for MAPKAP1 (UniProt Q9BPZ7) here?
Its thermal stability z-score is 0.0626.

GTPBP6 (UniProt O43824) was tested. Which thermal stability z-score did it give?
The thermal stability z-score was 0.043.

With EPB41 (UniProt P11171) as the target, how does the thermal stability z-score read?
Its thermal stability z-score is -0.0292.

Which thermal stability z-score does the source give for QKI (UniProt Q96PU8) here?
The thermal stability z-score was 0.0813.

For RPL37 (UniProt P61927), which thermal stability z-score is on record?
The thermal stability z-score was -0.915.

For FASTKD3 (UniProt Q14CZ7), which thermal stability z-score is on record?
The thermal stability z-score was -0.00397.

For MPI (UniProt P34949), which thermal stability z-score is on record?
The thermal stability z-score was 0.187.

With ILF3 (UniProt Q12906) as the target, how does the thermal stability z-score read?
Its thermal stability z-score is -1.11.

With C9ORF78 (UniProt Q9NZ63) as the target, how does the thermal stability z-score read?
Its thermal stability z-score is 0.106.

How did the thermal stability z-score turn out when FAM120A (UniProt Q9NZB2) was run?
Its thermal stability z-score is 0.686.

Which thermal stability z-score does the source give for TSSC1 (UniProt Q53HC9) here?
The thermal stability z-score was -0.25.

For MRPL16 (UniProt Q9NX20), which thermal stability z-score is on record?
Its thermal stability z-score is -0.974.

How did the thermal stability z-score turn out when ARL2BP (UniProt Q9Y2Y0) was run?
The thermal stability z-score was -0.326.

For EHBP1L1 (UniProt Q8N3D4), which thermal stability z-score is on record?
Its thermal stability z-score is -0.3.

NT5C3A (UniProt Q9H0P0) was tested. Which thermal stability z-score did it give?
The thermal stability z-score was -1.77.

Which thermal stability z-score does the source give for FRG1 (UniProt Q14331) here?
The thermal stability z-score was 0.312.

How did the thermal stability z-score turn out when GSPT2 (UniProt Q8IYD1) was run?
The thermal stability z-score was -0.621.

NUMB (UniProt P49757) was tested. Which thermal stability z-score did it give?
The thermal stability z-score was -2.09.

Which thermal stability z-score does the source give for TMEM30A (UniProt Q9NV96) here?
The thermal stability z-score was -0.845.

Which thermal stability z-score does the source give for ALAD (UniProt P13716) here?
The thermal stability z-score was 0.112.

With CELF1 (UniProt Q92879) as the target, how does the thermal stability z-score read?
The thermal stability z-score was -0.593.

Which thermal stability z-score does the source give for ATP2B4 (UniProt P23634) here?
The thermal stability z-score was -1.05.

For COL4A2 (UniProt P08572), which thermal stability z-score is on record?
The thermal stability z-score was 0.138.

GCHFR (UniProt P30047) was tested. Which thermal stability z-score did it give?
Its thermal stability z-score is 0.0269.

How did the thermal stability z-score turn out when CERCAM (UniProt Q5T4B2) was run?
The thermal stability z-score was -0.44.

Which thermal stability z-score does the source give for HNRNPF (UniProt P52597) here?
The thermal stability z-score was -0.208.

ASB9 (UniProt Q96DX5) was tested. Which thermal stability z-score did it give?
Its thermal stability z-score is -0.202.

For IAH1 (UniProt Q2TAA2), which thermal stability z-score is on record?
Its thermal stability z-score is -0.173.

VPS35 (UniProt Q96QK1) was tested. Which thermal stability z-score did it give?
The thermal stability z-score was -0.541.

How did the thermal stability z-score turn out when HSPA5 (UniProt P11021) was run?
The thermal stability z-score was 0.434.

Which thermal stability z-score does the source give for MTAP (UniProt Q13126) here?
Its thermal stability z-score is -1.77.

How did the thermal stability z-score turn out when HMCES (UniProt Q96FZ2) was run?
The thermal stability z-score was -0.565.

Which thermal stability z-score does the source give for PSMB1 (UniProt P20618) here?
Its thermal stability z-score is 0.497.

For HNRNPUL2 (UniProt Q1KMD3), which thermal stability z-score is on record?
Its thermal stability z-score is -0.392.

TRMT1 (UniProt Q9NXH9) was tested. Which thermal stability z-score did it give?
Its thermal stability z-score is -0.423.

ALDH1L2 (UniProt Q3SY69) was tested. Which thermal stability z-score did it give?
Its thermal stability z-score is 0.559.

Which thermal stability z-score does the source give for UBLCP1 (UniProt Q8WVY7) here?
The thermal stability z-score was 0.8.

For UTP3 (UniProt Q9NQZ2), which thermal stability z-score is on record?
The thermal stability z-score was 0.203.

Which thermal stability z-score does the source give for PIR (UniProt O00625) here?
The thermal stability z-score was -1.25.

VWA9 (UniProt Q96SY0) was tested. Which thermal stability z-score did it give?
Its thermal stability z-score is -0.114.

SPIN1 (UniProt Q9Y657) was tested. Which thermal stability z-score did it give?
The thermal stability z-score was -0.0902.

For CEP83 (UniProt Q9Y592), which thermal stability z-score is on record?
The thermal stability z-score was -0.498.

Each target was assayed with NC(=O)CCCCC1CCSS1 [lipoamide] in the same assay as above. Conditions: HeLa; lipoamide concentration 100 µM; arsenate co-treatment: 1 mM arsenate 1 h.
Description: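 Cellular thermal proteome profiling in HeLa cells. Cells were treated with 100 µM lipoamide for 1 h, with or without 1 mM arsenate for a further 1 h, then heated to ten temperatures (37-66.3 °C), and soluble protein was quantified by TMT mass spectrometry relative to 0.1% DMSO controls. The thermal stability score (sum of log2 fold changes minus the abundance score) was transformed to a z-score; mean of n = 3 experiments.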

With SPRYD7 (UniProt Q5W111) as the target, how does the thermal stability z-score read?
The thermal stability z-score was 0.397.

BRD8 (UniProt Q9H0E9) was tested. Which thermal stability z-score did it give?
Its thermal stability z-score is 0.111.

Which thermal stability z-score does the source give for REL (UniProt Q04864) here?
Its thermal stability z-score is -0.801.

For CXORF56 (UniProt Q9H5V9), which thermal stability z-score is on record?
Its thermal stability z-score is 0.162.

For GSTZ1 (UniProt O43708), which thermal stability z-score is on record?
Its thermal stability z-score is -0.243.

With RPL10 (UniProt P27635) as the target, how does the thermal stability z-score read?
Its thermal stability z-score is 0.0934.

With SH3PXD2A (UniProt Q5TCZ1) as the target, how does the thermal stability z-score read?
Its thermal stability z-score is -0.325.

Which thermal stability z-score does the source give for MTMR1 (UniProt Q13613) here?
The thermal stability z-score was -0.545.

For ASNSD1 (UniProt Q9NWL6), which thermal stability z-score is on record?
The thermal stability z-score was -0.942.

With XPO6 (UniProt Q96QU8) as the target, how does the thermal stability z-score read?
Its thermal stability z-score is 0.0641.

Which thermal stability z-score does the source give for PAIP2 (UniProt Q9BPZ3) here?
The thermal stability z-score was 0.427.

Which thermal stability z-score does the source give for CCDC12 (UniProt Q8WUD4) here?
Its thermal stability z-score is 0.646.

Which thermal stability z-score does the source give for APIP (UniProt Q96GX9) here?
Its thermal stability z-score is 0.597.

With BCAP29 (UniProt Q9UHQ4) as the target, how does the thermal stability z-score read?
Its thermal stability z-score is 0.262.

With MINK1 (UniProt Q8N4C8) as the target, how does the thermal stability z-score read?
The thermal stability z-score was -0.526.

How did the thermal stability z-score turn out when ASPHD1 (UniProt Q5U4P2) was run?
Its thermal stability z-score is -0.334.

With SURF6 (UniProt O75683) as the target, how does the thermal stability z-score read?
Its thermal stability z-score is -0.283.

WWP2 (UniProt O00308) was tested. Which thermal stability z-score did it give?
The thermal stability z-score was -0.0648.

With INPP5A (UniProt Q14642) as the target, how does the thermal stability z-score read?
The thermal stability z-score was -1.28.

MARS (UniProt P56192) was tested. Which thermal stability z-score did it give?
The thermal stability z-score was -1.37.

GOLGA1 (UniProt Q92805) was tested. Which thermal stability z-score did it give?
Its thermal stability z-score is -0.956.

How did the thermal stability z-score turn out when ALDH1B1 (UniProt P30837) was run?
Its thermal stability z-score is 1.12.

Which thermal stability z-score does the source give for SFPQ (UniProt P23246) here?
The thermal stability z-score was 2.47.

For BTF3L4 (UniProt Q96K17), which thermal stability z-score is on record?
The thermal stability z-score was 0.212.

PLCD3 (UniProt Q8N3E9) was tested. Which thermal stability z-score did it give?
Its thermal stability z-score is 0.235.

How did the thermal stability z-score turn out when ZWILCH (UniProt Q9H900) was run?
The thermal stability z-score was -0.3.

With PPP1R7 (UniProt Q15435) as the target, how does the thermal stability z-score read?
The thermal stability z-score was 0.128.

For DIAPH3 (UniProt Q9NSV4), which thermal stability z-score is on record?
Its thermal stability z-score is -1.4.

HPDL (UniProt Q96IR7) was tested. Which thermal stability z-score did it give?
Its thermal stability z-score is 1.09.

How did the thermal stability z-score turn out when MAPKAP1 (UniProt Q9BPZ7) was run?
Its thermal stability z-score is 0.13.

GTPBP6 (UniProt O43824) was tested. Which thermal stability z-score did it give?
Its thermal stability z-score is 0.0509.

With EPB41 (UniProt P11171) as the target, how does the thermal stability z-score read?
The thermal stability z-score was -0.424.

QKI (UniProt Q96PU8) was tested. Which thermal stability z-score did it give?
The thermal stability z-score was -0.625.

How did the thermal stability z-score turn out when RPL37 (UniProt P61927) was run?
The thermal stability z-score was 0.254.

For FASTKD3 (UniProt Q14CZ7), which thermal stability z-score is on record?
The thermal stability z-score was -0.0188.
